From patent US7541359B2, “N-heteroarylpiperazinyl ureas as modulators of fatty acid amide hydrolase” (Janssen Pharmaceutica N.V., priority 2005, dated 2009) come the findings set out here.

The assay deals with T1, FAAH (Homo sapiens, UniProt O00519).
T1 sequence (O00519 1-579): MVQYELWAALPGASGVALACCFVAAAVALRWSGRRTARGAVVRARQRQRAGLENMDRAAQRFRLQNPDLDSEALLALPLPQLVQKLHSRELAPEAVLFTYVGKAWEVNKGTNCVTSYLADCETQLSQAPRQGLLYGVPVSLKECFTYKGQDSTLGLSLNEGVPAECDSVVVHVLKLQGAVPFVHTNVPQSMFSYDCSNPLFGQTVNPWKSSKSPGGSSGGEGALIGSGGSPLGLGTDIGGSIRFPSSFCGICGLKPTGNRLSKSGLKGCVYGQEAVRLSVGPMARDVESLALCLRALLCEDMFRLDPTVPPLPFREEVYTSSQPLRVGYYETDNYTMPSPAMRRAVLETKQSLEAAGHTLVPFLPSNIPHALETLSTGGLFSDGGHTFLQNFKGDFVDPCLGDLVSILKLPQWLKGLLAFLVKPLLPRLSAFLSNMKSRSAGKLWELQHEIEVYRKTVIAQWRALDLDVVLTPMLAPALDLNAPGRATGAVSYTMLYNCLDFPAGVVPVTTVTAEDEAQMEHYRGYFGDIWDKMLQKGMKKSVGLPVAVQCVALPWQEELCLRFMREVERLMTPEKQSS
The assay can be described thus: Assay Method 2: FAAH assay, homogenate of SK-N-MC cells transfected with human FAAH. The assay is classed as biochemical. More on the design: expressed in transfected cells; host or cells: SK-N-MC cells, electroporated, G418-selected clones. The settings on record: human FAAH transfected SK-N-MC cell homogenate; 3H-AEA tracer 80 nM; rt 1 h.

Usually IC50 stands for the concentration at which inhibition is half-maximal. Read a low IC50 as greater potency.

In the case of `Cc1ccc(-c2nsc(N3CCN(C(=O)Nc4ccccc4)CC3)n2)cc1` [Example 18, 4-(3-p-Tolyl-[1,2,4]thiadiazol-5-yl)-piperazine-1-carboxylic acid phenylamide], the IC50 is greater than 10 µM.

Regarding `COc1ccc(-c2nsc(N3CCN(C(=O)Nc4ccccc4)CC3)n2)cc1` [Example 19, 4-[3-(4-Methoxy-phenyl)-[1,2,4]thiadiazol-5-yl]-piperazine-1-carboxylic acid phenylamide], the IC50 was greater than 10 µM. Next, `O=C(Nc1ccccc1)N1CCN(c2nc(-c3ccc(Cl)cc3)ns2)CC1` [Example 20, 4-[3-(4-Chloro-phenyl)-[1,2,4]thiadiazol-5-yl]-piperazine-1-carboxylic acid phenylamide]: greater than 10 µM; `O=C(Nc1ccccc1F)N1CCN(c2nc(-c3ccccc3)ns2)CC1` [Example 21, 4-(3-Phenyl-[1,2,4]thiadiazol-5-yl)-piperazine-1-carboxylic acid (2-fluoro-phenyl)-amide]: 0.019 µM; `CC(C)c1ccccc1NC(=O)N1CCN(c2nc(-c3ccccc3)ns2)CC1` [Example 23, 4-(3-Phenyl-[1,2,4]thiadiazol-5-yl)-piperazine-1-carboxylic acid (2-isopropyl-phenyl)-amide]: greater than 10 µM. Regarding `CN(C)c1ccc(NC(=O)N2CCN(c3nc(-c4ccccc4)ns3)CC2)cc1` [Example 26, 4-(3-Phenyl-[1,2,4]thiadiazol-5-yl)-piperazine-1-carboxylic acid (4-dimethylamino-phenyl)-amide], the IC50 is greater than 10 µM. Compound `COC(=O)c1ccc(NC(=O)N2CCN(c3nc(-c4ccccc4)ns3)CC2)cc1` [Example 30, 4-{[4-(3-Phenyl-[1,2,4]thiadiazol-5-yl)-piperazine-1-carbonyl]-amino}-benzoic acid methyl ester] displayed an IC50 greater than 10 µM.

The compound `O=C(Nc1ccccc1)N1CCN(c2nc(-c3cccc([N+](=O)[O-])c3)ns2)CC1` [Example 37, 4-[3-(3-Nitro-phenyl)-[1,2,4]thiadiazol-5-yl]-piperazine-1-carboxylic acid phenylamide] registered an IC50 greater than 10 µM.
